Measurements from patent publication US20160061919A1, “IMAGING OF CREATINE KINASE ENZYME EXPRESSION IN CANCEROUS TISSUES” (Sidra Medical and Research Center, priority 2014, published 2016).

Assays:
[1] = tested on: CK enzyme expressed in the tumor; experiment: in vivo imaging of creatine kinase expression by monitoring conversion of PCr to Cr through CEST; details: 60 minutes following tail vein injection of PCr, versus base line CEST map, FIG. 3
Protocol: (§1) In certain embodiments, the radio frequency (RF) pulse can be provided at different frequency offsets. In certain embodiments, to detect the conversion of phosphocreatine to creatine, an RF pulse was applied at a frequency offset of about 1.8 ppm for a period of about 1 to about 3 seconds.
“b” is the base line CEST map from the same slice. “c” is a CEST map of the same slice at 60 minutes following tail vein injection of PCr.

[2] = tested on: creatine kinase (CK) expression in cancer cells; experiment: CEST imaging of cancer cells cultured with PCr; type: cell-based; details: cancer cell line cultured with PCr for 1 hour; FIG. 2
Source text: as §1
The creatine kinase (CK) expression in cancer cells cleaves the PCr into creatine (Cr), and can be responsible for the increase in CEST contrast from creatine amine protons.

CN(CC(=O)O)C(=N)NP(=O)(O)O [PCr, phosphocreatine]
increase in CEST contrast [1]: about 11%
elevation of the CEST contrast over cancer cells without PCr [2]: about 16%
